# According to ChEMBL document CHEMBL5291721, “A preclinical secondary pharmacology resource illuminates target-adverse drug reaction associations of marketed drugs” (Nat Commun, 2023):
# How the values were obtained:
# Histamine H2 receptor = Histamine H2 receptor (Homo sapiens, UniProt P25021); assay type: functional, cell-based
# Thromboxane A2 receptor = target: T1, Thromboxane A2 receptor (Homo sapiens, UniProt P21731); assay type: functional, cell-based
# T1 sequence (P21731 whole entry): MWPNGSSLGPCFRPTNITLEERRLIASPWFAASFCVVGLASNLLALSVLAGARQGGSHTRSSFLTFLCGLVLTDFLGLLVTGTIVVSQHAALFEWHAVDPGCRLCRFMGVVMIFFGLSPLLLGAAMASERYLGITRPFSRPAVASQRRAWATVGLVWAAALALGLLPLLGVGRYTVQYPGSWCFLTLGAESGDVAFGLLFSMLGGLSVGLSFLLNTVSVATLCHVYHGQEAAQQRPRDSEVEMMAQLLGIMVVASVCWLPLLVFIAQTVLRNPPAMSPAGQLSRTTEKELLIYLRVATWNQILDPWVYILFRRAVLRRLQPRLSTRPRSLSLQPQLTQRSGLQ
# Cannabinoid receptor 1 = Cannabinoid receptor 1 (Homo sapiens, UniProt P21554); assay type: functional, cell-based
# Sequence of Cannabinoid receptor 1 (P21554 whole entry): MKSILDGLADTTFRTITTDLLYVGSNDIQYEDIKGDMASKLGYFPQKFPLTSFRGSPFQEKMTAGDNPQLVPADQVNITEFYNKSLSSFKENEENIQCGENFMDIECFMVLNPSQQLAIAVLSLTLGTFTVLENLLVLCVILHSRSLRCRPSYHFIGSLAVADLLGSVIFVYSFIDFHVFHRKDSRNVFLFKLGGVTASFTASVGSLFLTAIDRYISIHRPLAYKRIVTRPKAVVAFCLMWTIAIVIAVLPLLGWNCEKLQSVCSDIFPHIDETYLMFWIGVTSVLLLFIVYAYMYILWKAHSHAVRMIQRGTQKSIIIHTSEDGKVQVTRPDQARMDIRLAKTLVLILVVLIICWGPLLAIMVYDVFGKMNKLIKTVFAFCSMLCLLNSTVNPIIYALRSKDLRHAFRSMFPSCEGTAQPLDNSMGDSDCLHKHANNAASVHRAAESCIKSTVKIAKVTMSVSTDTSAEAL
# [1] = target: Gamma-aminobutyric acid receptor subunit alpha-1 (Rattus norvegicus, UniProt P62813)
# Sequence of Gamma-aminobutyric acid receptor subunit alpha-1 (P62813 whole entry): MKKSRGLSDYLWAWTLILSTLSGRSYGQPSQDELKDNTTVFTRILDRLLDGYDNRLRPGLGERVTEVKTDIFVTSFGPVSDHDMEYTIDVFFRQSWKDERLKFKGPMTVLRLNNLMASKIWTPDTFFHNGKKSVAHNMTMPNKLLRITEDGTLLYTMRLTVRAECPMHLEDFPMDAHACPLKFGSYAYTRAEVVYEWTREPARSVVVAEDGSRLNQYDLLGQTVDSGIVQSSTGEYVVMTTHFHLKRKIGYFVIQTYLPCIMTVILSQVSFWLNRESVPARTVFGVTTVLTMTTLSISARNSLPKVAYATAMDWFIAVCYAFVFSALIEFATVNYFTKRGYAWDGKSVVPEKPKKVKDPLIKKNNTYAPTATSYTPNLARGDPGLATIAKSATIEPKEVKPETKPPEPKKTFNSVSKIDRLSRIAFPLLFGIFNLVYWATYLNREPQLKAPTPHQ
# [2] = target: T2, Alpha-1A adrenergic receptor (Homo sapiens, UniProt P35348); assay type: functional, cell-based
# T2 sequence (P35348 whole entry): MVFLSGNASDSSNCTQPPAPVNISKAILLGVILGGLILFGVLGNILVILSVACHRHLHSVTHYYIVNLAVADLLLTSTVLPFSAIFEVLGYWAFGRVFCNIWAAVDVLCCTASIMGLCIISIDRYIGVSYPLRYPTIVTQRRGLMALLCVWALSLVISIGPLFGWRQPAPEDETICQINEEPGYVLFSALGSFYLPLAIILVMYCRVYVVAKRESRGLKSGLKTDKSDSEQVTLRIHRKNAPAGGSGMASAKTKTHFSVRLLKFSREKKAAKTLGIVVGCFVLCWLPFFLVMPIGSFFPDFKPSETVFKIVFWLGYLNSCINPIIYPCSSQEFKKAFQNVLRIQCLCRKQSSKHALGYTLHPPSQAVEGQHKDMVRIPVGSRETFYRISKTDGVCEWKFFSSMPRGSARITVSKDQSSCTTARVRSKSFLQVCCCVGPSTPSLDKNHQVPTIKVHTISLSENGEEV
# [3] = target: cGMP-inhibited 3',5'-cyclic phosphodiesterase 3A (Homo sapiens, UniProt Q14432); assay type: functional
# Sequence of cGMP-inhibited 3',5'-cyclic phosphodiesterase 3A (Q14432 whole entry): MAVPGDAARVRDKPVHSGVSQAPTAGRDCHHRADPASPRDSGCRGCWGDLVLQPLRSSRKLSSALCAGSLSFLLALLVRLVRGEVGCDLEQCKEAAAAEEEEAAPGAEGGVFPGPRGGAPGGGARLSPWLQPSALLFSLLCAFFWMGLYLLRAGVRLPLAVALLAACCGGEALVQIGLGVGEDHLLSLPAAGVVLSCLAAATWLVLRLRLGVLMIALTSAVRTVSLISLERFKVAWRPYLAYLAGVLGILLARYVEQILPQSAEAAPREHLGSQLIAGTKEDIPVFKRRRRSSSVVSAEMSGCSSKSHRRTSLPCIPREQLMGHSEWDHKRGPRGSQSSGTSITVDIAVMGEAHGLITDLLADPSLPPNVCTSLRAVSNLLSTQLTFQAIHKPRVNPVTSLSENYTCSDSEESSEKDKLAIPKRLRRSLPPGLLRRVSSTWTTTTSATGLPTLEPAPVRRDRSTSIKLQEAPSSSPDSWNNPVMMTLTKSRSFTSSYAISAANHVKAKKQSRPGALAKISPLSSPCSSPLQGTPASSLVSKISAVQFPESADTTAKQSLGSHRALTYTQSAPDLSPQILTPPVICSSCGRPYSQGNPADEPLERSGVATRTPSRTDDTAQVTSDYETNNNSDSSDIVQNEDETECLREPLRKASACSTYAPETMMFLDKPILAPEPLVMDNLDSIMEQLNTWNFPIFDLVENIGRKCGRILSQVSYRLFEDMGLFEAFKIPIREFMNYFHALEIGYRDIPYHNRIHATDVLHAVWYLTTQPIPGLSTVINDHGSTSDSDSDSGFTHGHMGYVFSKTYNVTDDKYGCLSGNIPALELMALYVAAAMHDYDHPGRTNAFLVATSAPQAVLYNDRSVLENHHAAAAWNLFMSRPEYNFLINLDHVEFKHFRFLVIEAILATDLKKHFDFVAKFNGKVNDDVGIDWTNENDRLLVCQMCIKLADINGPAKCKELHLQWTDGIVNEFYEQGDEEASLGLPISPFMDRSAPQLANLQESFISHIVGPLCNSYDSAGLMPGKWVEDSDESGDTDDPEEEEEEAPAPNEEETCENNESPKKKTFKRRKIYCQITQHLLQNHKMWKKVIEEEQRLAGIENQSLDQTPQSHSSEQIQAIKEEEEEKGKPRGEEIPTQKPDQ
# [4] = target: T3, Prostaglandin G/H synthase 1 (Rattus norvegicus, UniProt Q63921); assay type: functional
# T3 sequence (Q63921 whole entry): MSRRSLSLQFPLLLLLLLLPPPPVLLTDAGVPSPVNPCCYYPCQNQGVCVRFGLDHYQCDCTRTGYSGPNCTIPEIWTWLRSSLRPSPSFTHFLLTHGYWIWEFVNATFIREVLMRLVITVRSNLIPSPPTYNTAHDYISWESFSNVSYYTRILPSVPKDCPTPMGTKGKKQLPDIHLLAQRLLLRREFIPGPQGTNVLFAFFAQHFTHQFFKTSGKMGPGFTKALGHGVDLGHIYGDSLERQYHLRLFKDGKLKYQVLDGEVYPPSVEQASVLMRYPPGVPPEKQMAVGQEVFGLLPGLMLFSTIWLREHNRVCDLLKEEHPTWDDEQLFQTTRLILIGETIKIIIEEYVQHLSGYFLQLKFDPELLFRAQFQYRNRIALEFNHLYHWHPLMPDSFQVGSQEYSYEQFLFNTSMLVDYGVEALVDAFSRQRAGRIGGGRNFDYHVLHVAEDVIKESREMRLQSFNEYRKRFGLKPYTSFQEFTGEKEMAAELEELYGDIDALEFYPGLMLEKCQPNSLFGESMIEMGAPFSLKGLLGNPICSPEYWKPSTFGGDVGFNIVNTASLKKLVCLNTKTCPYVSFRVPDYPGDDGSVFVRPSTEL
# Estrogen receptor = target: T4, Estrogen receptor (Homo sapiens, UniProt P03372)
# T4 sequence (P03372 whole entry): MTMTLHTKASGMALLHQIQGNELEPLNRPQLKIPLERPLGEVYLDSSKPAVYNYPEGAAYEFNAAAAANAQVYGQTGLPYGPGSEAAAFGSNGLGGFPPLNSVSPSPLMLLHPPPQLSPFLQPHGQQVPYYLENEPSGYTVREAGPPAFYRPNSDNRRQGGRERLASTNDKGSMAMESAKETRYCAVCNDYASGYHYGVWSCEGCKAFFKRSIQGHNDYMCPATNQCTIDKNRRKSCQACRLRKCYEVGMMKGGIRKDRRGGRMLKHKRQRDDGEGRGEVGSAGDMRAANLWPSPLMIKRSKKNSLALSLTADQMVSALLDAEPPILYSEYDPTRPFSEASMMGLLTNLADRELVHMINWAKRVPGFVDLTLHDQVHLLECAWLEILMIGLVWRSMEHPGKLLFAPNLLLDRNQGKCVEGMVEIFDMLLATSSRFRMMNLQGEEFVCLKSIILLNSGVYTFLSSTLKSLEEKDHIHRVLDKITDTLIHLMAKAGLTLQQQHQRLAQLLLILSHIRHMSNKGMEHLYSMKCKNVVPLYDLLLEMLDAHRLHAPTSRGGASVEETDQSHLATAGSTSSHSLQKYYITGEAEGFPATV
# Also: assay procedure not described here.
# Sequence of Histamine H2 receptor (P25021 whole entry): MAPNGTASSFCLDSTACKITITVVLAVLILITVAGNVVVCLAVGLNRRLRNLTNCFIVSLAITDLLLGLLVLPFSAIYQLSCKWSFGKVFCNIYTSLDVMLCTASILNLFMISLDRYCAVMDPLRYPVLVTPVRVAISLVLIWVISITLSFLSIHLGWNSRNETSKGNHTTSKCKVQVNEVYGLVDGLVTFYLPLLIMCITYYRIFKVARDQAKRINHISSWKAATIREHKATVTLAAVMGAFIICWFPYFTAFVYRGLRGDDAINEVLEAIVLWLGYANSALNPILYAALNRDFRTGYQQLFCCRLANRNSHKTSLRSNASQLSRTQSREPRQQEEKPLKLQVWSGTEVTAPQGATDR
Compound,AC50 (Histamine H2 receptor) [µM],AC50 (Thromboxane A2 receptor) [µM],AC50 (Cannabinoid receptor 1) [µM],AC50 [1] [µM],AC50 [2] [µM],AC50 [3] [µM],AC50 [4] [µM],AC50 (Estrogen receptor) [µM]
CO/N=C(\C(=O)N[C@@H]1C(=O)N2C(C(=O)OCOC(=O)C(C)(C)C)=C(C)CS[C@H]12)c1csc(N)n1,> 30,> 30,> 30,> 30,> 30,> 30,,
Cc1c(O)cccc1C(=O)N[C@@H](CSc1ccccc1)[C@H](O)CN1C[C@H]2CCCC[C@H]2C[C@H]1C(=O)NC(C)(C)C,,> 30,,,,> 30,,
NS(=O)(=O)c1cc(-c2nnn[nH]2)c(NCc2cccs2)cc1Cl [AZOSEMIDE],> 30,,> 30,> 30,> 30,,19,
C[N+](C)(C)CC(=O)O [BETAINE],> 30,,> 30,> 30,> 30,,> 30,
CN(Cc1cc(Br)cc(Br)c1N)C1CCCCC1 [BROMHEXINE],,> 30,,,,> 30,,> 30
CCCC(=O)N1CCCN(c2nc(N)c3cc(OC)c(OC)cc3n2)CC1 [BUNAZOSIN],> 30,,> 30,> 30,> 30,,> 30,
CCCC[N+]1(C)[C@@H]2C[C@@H](OC(=O)[C@H](CO)c3ccccc3)C[C@H]1[C@@H]1O[C@@H]12 (some centres undefined) [BUTYLSCOPOLAMINE],,> 30,,,,> 30,,> 30
C[N+](C)(C)CCOC(N)=O [CARBAMOYLCHOLINE],> 30,,> 30,> 10,> 30,,> 10,
N[C@@H](CSCC(=O)O)C(=O)O [CARBOCYSTEINE],> 30,,> 30,> 30,> 30,,> 30,
CC(C)(N)Cc1ccc(Cl)cc1 [CHLORPHENTERMINE],> 10,,> 30,> 10,> 30,,> 30,
O=C(c1ccc(F)c(F)c1Nc1ccc(I)cc1F)N1CC(O)([C@@H]2CCCCN2)C1 [COBIMETINIB],,17.6,,,,> 30,,> 30
CN1CCN(C(c2ccccc2)c2ccccc2)CC1 [CYCLIZINE],,> 30,,,,> 30,,> 30
NS(=O)(=O)c1cc2c(cc1Cl)NC(CC1CCCC1)NS2(=O)=O (centres undefined) [CYCLOPENTHIAZIDE],> 30,> 30,> 30,> 30,> 30,> 30,,
CN(C)[C@@H]1C(O)=C(C(N)=O)C(=O)[C@@]2(O)C(O)=C3C(=O)c4c(O)ccc(Cl)c4[C@@H](O)[C@H]3C[C@@H]12 [DEMECLOCYCLINE],> 10,,,> 10,,,> 10,
C[C@@H]1C[C@H]2[C@@H]3CCC4=CC(=O)C=C[C@]4(C)[C@@]3(F)[C@@H](O)C[C@]2(C)[C@H]1C(=O)CO [DESOXIMETASONE],,> 30,,,,> 30,,
NS(=O)(=O)c1cc(Cl)c(Cl)c(S(N)(=O)=O)c1 [DICHLORPHENAMIDE],> 10,,> 30,> 10,> 30,,> 10,
CC1=NN(c2ccccc2)C(=O)C1 [EDARAVONE],,> 30,,,,> 30,,> 30
C=C1C[C@@H]2[C@H](CC[C@]3(C)C(=O)CC[C@@H]23)[C@@]2(C)C=CC(=O)C=C12 [EXEMESTANE],> 10,,> 30,> 10,> 30,,> 30,

Compound,AC50 (Histamine H2 receptor) [µM],AC50 (Thromboxane A2 receptor) [µM],AC50 (Cannabinoid receptor 1) [µM],AC50 [1] [µM],AC50 [2] [µM],AC50 [3] [µM],AC50 [4] [µM],AC50 (Estrogen receptor) [µM]
CC(C)=CCC1C(=O)N(c2ccccc2)N(c2ccccc2)C1=O [FEPRAZONE],,> 30,,,,> 30,,> 30
CC(C(O)c1ccc(O)cc1)N1CCC(Cc2ccccc2)CC1 (centres undefined) [IFENPRODIL],> 30,,> 30,> 30,> 30,,> 30,
Oc1c(I)cc(I)c2cccnc12 [IODOQUINOL],,> 30,,,,3.36,,> 30
CC(=O)N(CC(O)CO)c1c(I)c(C(=O)NCC(O)CO)c(I)c(C(=O)NCC(O)CO)c1I (centres undefined) [IOHEXOL],> 10,,> 30,> 10,> 30,,> 30,
CN(CCCN1c2ccccc2CCc2ccccc21)CC(=O)c1ccc(Cl)cc1 [LOFEPRAMINE],> 30,,> 30,> 30,> 30,,1.3,
CC(=O)O[C@]1(C(C)=O)CC[C@H]2[C@@H]3C[C@H](C)C4=CC(=O)CC[C@]4(C)[C@H]3CC[C@@]21C [MEDROXYPROGESTERONE ACETATE],,> 30,,,,> 30,> 30,
CC(=O)OC(C)C[N+](C)(C)C (centres undefined) [METHACHOLINE],,0.824,,,,> 30,,> 30
Cn1cc[nH]c1=S [METHIMAZOLE],,> 30,,,,> 30,,> 30
CO[C@@]12[C@H](COC(N)=O)C3=C(C(=O)C(C)=C(N)C3=O)N1C[C@@H]1N[C@@H]12 [MITOMYCIN],,> 30,,,,> 30,,
CN(C/C=C/c1ccccc1)Cc1cccc2ccccc12 [NAFTIFINE],> 10,,> 30,> 10,> 30,,23.1,
COc1ccc2c(c1)OC(C)(C)C(c1ccccc1)C2c1ccc(OCCN2CCCC2)cc1 (centres undefined) [ORMELOXIFENE],,> 30,,,,> 30,,1.29
CC(C)NCC1CCc2cc(CO)c([N+](=O)[O-])cc2N1 (centres undefined) [OXAMNIQUINE],> 10,,> 30,> 10,> 30,,> 10,
Oc1cccc2cccnc12 [OXYQUINOLINE],,> 30,,,,> 30,,
Nc1nc2c(ncn2CCC(CO)CO)c(=O)[nH]1 [PENCICLOVIR],,> 30,,,,> 30,,> 30
CN(C)CCCN1c2ccccc2Sc2ccccc21 [PROMAZINE],> 10,,> 30,> 10,> 30,,> 30,
O=P(O)(O)C(O)(Cc1cccnc1)P(=O)(O)O [RISEDRONIC ACID],> 10,,> 30,> 30,> 30,,> 30,
O=C1CCC(N2C(=O)c3ccccc3C2=O)C(=O)N1 (centres undefined) [THALIDOMIDE],> 10,> 30,> 30,> 10,> 30,> 30,> 30,
CC(=O)N[C@H]1[C@H]([C@H](O)[C@H](O)CO)OC(C(=O)O)=C[C@@H]1N=C(N)N [ZANAMIVIR],> 30,,,> 10,,,> 30,
